Source: patent publication US12622894B2, “Pharmaceutical compositions and intravitreal drug delivery systems for the treatment of ocular diseases” (Perfuse Therapeutics, Inc., priority 2021, dated 2026)

Columns and labels:
[1] = cited from earlier work
[2] = Slurry conversion of crystalline forms in isopropanol and water, XRPD analysis; format: physicochemical
Method: In an alternate method, 150 mg of Edonentan (Form 3) was added to a mixture of isopropanol and water (1 mL and 2 mL, respectively). The resulting slurry was stirred at 15° C. for 48 hours and then filtered.
In an alternate method, 200 mg of Edonentan (Form 1) was added to a mixture of isopropanol and water (1.3 mL and 2.6 mL, respectively). The resulting solution was heated to 80° C. and stirred for 24 h, then cooled and filtered.

[3] = pH 7.4 in 2 mg/mL melanin solution; cited from earlier work
[4] = In vitro melanin binding assay with synthetic melanin; conditions: 200 μM; melanin 1 mg/mL
Method: A concentration of 200 μM chloroquine was used as a positive control.

For `Cc1onc(NS(=O)(=O)c2ccccc2-c2ccc(-c3ncco3)cc2CN(C)C(=O)CC(C)(C)C)c1C` [Edonentan, N-[[2′-[[(4,5-dimethyl-3-isoxazolyl)amino]sulfonyl]-4-(2-oxazolyl)[1,1′-biphenyl]-2-yl]methyl]-N,3,3-trimethylbutanamide], the “oral Tmax” value [1] is listed as 24 min.

With `Cc1onc(NS(=O)(=O)c2ccccc2-c2ccc(-c3ncco3)cc2CN(C)C(=O)CC(C)(C)C)c1C` [Form 3] the “Solubility pH 7.0 Phosphate Buffer” value was 251 μg/mL.

In the case of `Cc1onc(NS(=O)(=O)c2ccccc2-c2ccc(-c3ncco3)cc2CN(C)C(=O)CC(C)(C)C)c1C` [Form 2], the “Solubility pH 7.0 Phosphate Buffer” value is reported as 35 μg/mL.

With `Cc1onc(NS(=O)(=O)c2ccccc2-c2ccc(-c3ncco3)cc2CN(C)C(=O)CC(C)(C)C)c1C` [Form 4] the “relative thermodynamic stability of crystalline forms” value ([2]; Form 1 in isopropanol and water, 80° C., 24 h) was “more thermodynamically stable than Form 1” and the “relative thermodynamic stability of crystalline forms” value ([2]; slurry of Form 3 in isopropanol and water, 15° C., 48 hours) was “more thermodynamically stable than Form 3”.

With `Cc1onc(NS(=O)(=O)c2ccccc2-c2ccc(-c3ncco3)cc2CN(C)C(=O)CC(C)(C)C)c1C` [Form 1] the “Solubility pH 7.0 Phosphate Buffer” value was 264 μg/mL.

For `CCN(CC)CCCC(C)Nc1ccnc2cc(Cl)ccc12` (centres unmarked) [chloroquine], the “bound to melanin, literature values” [3] is given as 92-99.6 % bound and the “binding to melanin (% bound)” value [4] is given as 99.5 % bound.
